Test results reported in patent publication US20090062294A1, “HETEROARYL-SUBSTITUTED UREA MODULATORS OF FATTY ACID AMIDE HYDROLASE” (priority 2007, published 2009).
Counter-ions that a name gives are not always drawn.

Assays:
rat FAAH = biological target: T1, rat FAAH (Rattus norvegicus, UniProt P97612); assay: Assay Method 2: FAAH assay, 3H-anandamide hydrolysis in homogenate of SK-N-MC cells transfected with rat FAAH; assay type: biochemical; details: average of results, > = solubility limit or highest concentration tested
T1 sequence (P97612 1-579): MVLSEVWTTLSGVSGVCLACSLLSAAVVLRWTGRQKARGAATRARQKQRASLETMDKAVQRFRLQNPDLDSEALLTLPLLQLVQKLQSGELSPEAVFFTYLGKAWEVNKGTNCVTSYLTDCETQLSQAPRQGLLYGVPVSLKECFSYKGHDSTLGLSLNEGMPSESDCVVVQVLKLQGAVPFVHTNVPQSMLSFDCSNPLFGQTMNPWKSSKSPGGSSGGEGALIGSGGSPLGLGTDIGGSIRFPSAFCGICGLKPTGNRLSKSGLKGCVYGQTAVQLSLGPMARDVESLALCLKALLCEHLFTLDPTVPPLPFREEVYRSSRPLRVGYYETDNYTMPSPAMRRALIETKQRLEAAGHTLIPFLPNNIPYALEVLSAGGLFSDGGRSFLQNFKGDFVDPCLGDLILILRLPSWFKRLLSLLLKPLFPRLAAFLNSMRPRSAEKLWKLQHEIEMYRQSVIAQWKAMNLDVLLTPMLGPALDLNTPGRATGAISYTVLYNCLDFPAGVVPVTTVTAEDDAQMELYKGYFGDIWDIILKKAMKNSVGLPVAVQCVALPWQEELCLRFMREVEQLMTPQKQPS
Procedure, shortened: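 Read-out is scintillation counting of [3H]-ethanolamine passing through activated charcoal, after 1 h at rt with 80 nM final [3H]-AEA. Enzyme source: lysate of G418-selected SK-N-MC clones expressing rat FAAH, homogenized in Tris/EDTA/glycerol/0.02% Triton buffer, pH 9.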

FAAH = biological target: T2, FAAH (Homo sapiens, UniProt O00519); assay: Assay Method 1: FAAH assay, 3H-anandamide hydrolysis in homogenate of T84 cells or SK-N-MC cells transfected with human FAAH; assay type: biochemical; details: average of results, > = solubility limit or highest concentration tested
T2 sequence (O00519 1-579): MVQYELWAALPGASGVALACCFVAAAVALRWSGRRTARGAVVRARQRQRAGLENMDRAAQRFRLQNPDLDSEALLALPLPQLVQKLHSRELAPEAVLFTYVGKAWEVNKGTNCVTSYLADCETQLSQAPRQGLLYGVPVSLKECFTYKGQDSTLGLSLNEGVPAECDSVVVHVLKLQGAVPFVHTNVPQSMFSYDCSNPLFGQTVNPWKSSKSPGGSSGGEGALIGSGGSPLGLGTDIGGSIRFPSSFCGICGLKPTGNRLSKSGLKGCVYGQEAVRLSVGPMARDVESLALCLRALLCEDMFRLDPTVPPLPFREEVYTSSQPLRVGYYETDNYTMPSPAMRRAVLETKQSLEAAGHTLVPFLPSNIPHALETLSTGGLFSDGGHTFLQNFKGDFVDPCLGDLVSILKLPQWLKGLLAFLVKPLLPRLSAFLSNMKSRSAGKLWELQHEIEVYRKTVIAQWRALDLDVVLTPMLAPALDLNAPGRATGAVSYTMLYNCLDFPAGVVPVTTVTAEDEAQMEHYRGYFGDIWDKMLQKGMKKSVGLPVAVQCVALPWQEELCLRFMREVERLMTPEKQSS
Procedure, shortened: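 Hydrolysis of ^3H-anandamide (80 nM final, added last) was measured over 1 h at rt, using test compound with homogenate of T84 cells or human FAAH-transfected SK-N-MC cells. The homogenization buffer was 125 mM Tris, 1 mM EDTA, 0.02% Triton X-100, pH 9. Unbound labelled ethanolamine was passed through charcoal filters and scintillation-counted.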

| Compound | IC50 (rat FAAH) [µM] | IC50 (FAAH) [µM] |
| --- | --- | --- |
| C#Cc1cccc(CN2CCN(C(=O)Nc3noc4ccccc34)CC2)c1 [Example 68, 4-(3-Ethynyl-benzyl)-piperazine-1-carboxylic acid benzo[d]isoxazol-3-ylamide] | 0.315 | 0.016 |
| CN(C)CC#Cc1cccc(CN2CCN(C(=O)Nc3noc4ccccc34)CC2)c1 [Example 69, N-1,2-Benzisoxazol-3-yl-4-{3-[3-(dimethylamino)prop-1-yn-1-yl]benzyl}-piperazine-1-carboxamide] | 2 | 0.044 |
| O=C(Nc1noc2ccccc12)N1CCN(Cc2cccc(C#Cc3ccc(Cl)cc3)c2)CC1 [Example 74, N-1,2-Benzisoxazol-3-yl-4-{3-[(4-chlorophenyl)ethynyl]benzyl}-piperazine-1-carboxamide] | 0.325 | 0.41 |
| O=C(Nc1noc2ccccc12)N1CCN(Cc2cccc(C#CC3CC3)c2)CC1 [Example 76, N-1,2-Benzisoxazol-3-yl-4-[3-(cyclopropylethynyl)benzyl]-piperazine-1-carboxamide] | 0.4 | 0.01 |
| O=C(Nc1cnccn1)N1CCN(Cc2cccc(C#Cc3ccccc3Cl)c2)CC1 [Example 78, 4-{3-[(2-Chlorophenyl)ethynyl]benzyl}-N-pyrazin-2-ylpiperazine-1-carboxamide hydrochloride salt] | 0.41 | 0.059 |
| O=C(Nc1cccnn1)N1CCN(Cc2cccc(C#Cc3ccccc3Cl)c2)CC1 [Example 79, 4-{3-[(2-Chlorophenyl)ethynyl]benzyl}-N-pyridazin-3-ylpiperazine-1-carboxamide] | 0.32 | 0.046 |
| Cc1cnc(NC(=O)N2CCN(Cc3cccc(C#Cc4ccccc4Cl)c3)CC2)cn1 [Example 80, 4-{3-[(2-Chlorophenyl)ethynyl]benzyl}-N-(5-methylpyrazin-2-yl)piperazine-1-carboxamide] | 4 | 5 |
| O=C(Nc1noc2ccccc12)N1CCN(Cc2cccc(C#Cc3ccccc3OC(F)(F)F)c2)CC1 [Example 82, N-1,2-Benzisoxazol-3-yl-4-(3-{[2-(trifluoromethoxy)phenyl]-ethynyl}benzyl)-piperazine-1-carboxamide] | 0.256 | 0.272 |
| O=C(Nc1noc2ccccc12)N1CCN(Cc2cccc(C#Cc3cc(Cl)ccc3Cl)c2)CC1 [Example 84, N-1,2-Benzisoxazol-3-yl-4-{3-[(2,5-dichlorophenyl)ethynyl]benzyl}-piperazine-1-carboxamide] | 0.295 | 0.016 |
| O=C(Nc1noc2ccccc12)N1CCN(Cc2cccc(C#Cc3cccc4ccccc34)c2)CC1 [Example 86, N-1,2-Benzisoxazol-3-yl-4-[3-(naphthalen-1-ylethynyl)benzyl]piperazine-1-carboxamide] | 0.58 | 3 |
| COC(=O)c1ccccc1C#Cc1cccc(CN2CCN(C(=O)Nc3noc4ccccc34)CC2)c1 [Example 87, Methyl 2-[(3-{[4-(1,2-benzisoxazol-3-ylcarbamoyl)piperazin-1-yl]methyl}phenyl)ethynyl]benzoate] | 0.48 | 2 |
| O=C(Nc1noc2ccccc12)N1CCN(Cc2cccc(C#Cc3ccc4c(c3)OCO4)c2)CC1 [Example 89, N-1,2-Benzisoxazol-3-yl-4-[3-(1,3-benzodioxol-5-ylethynyl)benzyl]-piperazine-1-carboxamide] | 0.544 | 0.645 |
| O=C(Nc1noc2ccccc12)N1CCN(Cc2cccc(C#Cc3cccc(Cl)c3Cl)c2)CC1 [Example 90, N-1,2-Benzisoxazol-3-yl-4-{3-[(2,3-dichlorophenyl)ethynyl]benzyl}-piperazine-1-carboxamide] | 0.815 | 0.195 |
| N#CCc1ccccc1C#Cc1cccc(CN2CCN(C(=O)Nc3noc4ccccc34)CC2)c1 [Example 92, N-1,2-Benzisoxazol-3-yl-4-(3-{[2-(cyanomethyl)phenyl]ethynyl}-benzyl)piperazine-1-carboxamide] | 0.262 | 0.027 |

Stronger by IC50 (rat FAAH), values ahead:

| IC50 (rat FAAH) [µM] | IC50 (FAAH) [µM] | Compound |
| --- | --- | --- |
| 0.238 | 0.453 | O=C(Nc1noc2ccccc12)N1CCN(Cc2cccc(C#Cc3ccc(Cl)cc3Cl)c2)CC1 [Example 81, N-1,2-Benzisoxazol-3-yl-4-{3-[(2,4-dichlorophenyl)-ethynyl]benzyl}-piperazine-1-carboxamide] |
| 0.225 | 0.102 | COC(=O)Cc1ccccc1C#Cc1cccc(CN2CCN(C(=O)Nc3noc4ccccc34)CC2)c1 [Example 93, Methyl {2-[(3-{[4-(1,2-benzisoxazol-3-ylcarbamoyl)piperazin-1-yl]methyl}phenyl)ethynyl]phenyl}acetate] |
| 0.11 | 0.123 | O=C(Nc1noc2ccccc12)N1CCN(Cc2cccc(C#Cc3ccc(Cl)c(Cl)c3)c2)CC1 [Example 75, N-1,2-Benzisoxazol-3-yl-4-{3-[(3,4-dichlorophenyl)ethynyl]-benzyl}-piperazine-1-carboxamide] |
| 0.065 | 0.015 | N#Cc1cccc(C#Cc2cccc(CN3CCN(C(=O)Nc4noc5ccccc45)CC3)c2)c1 [Example 88, N-1,2-Benzisoxazol-3-yl-4-{3-[(3-cyanophenyl)ethynyl]benzyl}piperazine-1-carboxamide] |
| 0.064 | 0.012 | O=C(Nc1noc2ccccc12)N1CCN(Cc2cccc(C#Cc3ccsc3)c2)CC1 [Example 77, N-1,2-Benzisoxazol-3-yl-4-[3-(thiophen-3-ylethynyl)benzyl]-piperazine-1-carboxamide] |
| 0.052 | 0.006 | O=C(Nc1noc2ccccc12)N1CCN(Cc2cccc(C#Cc3ccccc3Br)c2)CC1 [Example 67, N-1,2-Benzisoxazol-3-yl-4-{3-[(2-bromophenyl)-ethynyl]benzyl}-piperazine-1-carboxamide] |
| 0.05 | 0.013 | O=C(Nc1noc2ccccc12)N1CCN(Cc2cccc(C#CC3CCCC3)c2)CC1 [Example 71, N-1,2-Benzisoxazol-3-yl-4-[3-(cyclopentylethynyl)benzyl]-piperazine-1-carboxamide] |
| 0.046 | 0.024 | O=C(Nc1noc2ccccc12)N1CCN(Cc2cccc(C#Cc3ccccc3F)c2)CC1 [Example 66, N-1,2-Benzisoxazol-3-yl-4-{3-[(2-fluorophenyl)ethynyl]-benzyl}-piperazine-1-carboxamide] |
| 0.046 | 0.046 | O=C(Nc1noc2ccccc12)N1CCN(Cc2cccc(C#CC3CCCCC3)c2)CC1 [Example 70, N-1,2-Benzisoxazol-3-yl-4-[3-(cyclohexylethynyl)benzyl]-piperazine-1-carboxamide] |
| 0.033 | 0.024 | O=C(Nc1noc2ccccc12)N1CCN(Cc2cccc(C#Cc3cccc(Cl)c3)c2)CC1 [Example 73, N-1,2-Benzisoxazol-3-yl-4-{3-[(3-chlorophenyl)ethynyl]benzyl}-piperazine-1-carboxamide] |
| 0.03 | 0.024 | O=C(Nc1noc2ccccc12)N1CCN(Cc2cccc(C#Cc3ccccc3Cl)c2)CC1 [Example 72, N-1,2-Benzisoxazol-3-yl-4-{3-[(2-chlorophenyl)-ethynyl]benzyl}-piperazine-1-carboxamide] |
| 0.023 | 0.018 | N#Cc1ccccc1C#Cc1cccc(CN2CCN(C(=O)Nc3noc4ccccc34)CC2)c1 [Example 85, N-1,2-Benzisoxazol-3-yl-4-{3-[(2-cyanophenyl)ethynyl]benzyl}-piperazine-1-carboxamide] |
| 0.021 | 0.03 | N#Cc1c(F)cccc1C#Cc1cccc(CN2CCN(C(=O)Nc3noc4ccccc34)CC2)c1 [Example 91, N-1,2-Benzisoxazol-3-yl-4-{3-[(2-cyano-3-fluorophenyl)ethynyl]-benzyl}piperazine-1-carboxamide] |
| 0.02 | 0.035 | O=C(Nc1noc2ccccc12)N1CCN(Cc2cccc(C#Cc3cc(Cl)cc(Cl)c3)c2)CC1 [Example 83, N-1,2-Benzisoxazol-3-yl-4-{3-[(3,5-dichlorophenyl)ethynyl]benzyl}-piperazine-1-carboxamide] |
